In this assay the test system is BDF1 mice, L1210 leukemia sc, survival T/C. The assay is described as follows: NCI In Vivo Anticancer Drug Screen. Data for tumor model L1210 Leukemia (subcutaneous) in B6D2F1 (BDF1) mice. The note with it: higher = longer survival. In short, it runs like this: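 Mice carrying transplanted tumors received test compounds, and survival or tumor size was measured. Values are the treated-group measurement (T) divided by that of the vehicle-treated control group (C).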

Setting [1] is: endpoint: median survival time, dose: 64.8 mg/kg/injection, schedule: Q01DX Z (sc), vehicle: methylcellulose (MC).
[2] abbreviates: endpoint: median survival time, dose: 108.0 mg/kg/injection, schedule: Q01DX Z (sc), vehicle: methylcellulose (MC).
[3] abbreviates: endpoint: median survival time, dose: 180.0 mg/kg/injection, schedule: Q01DX Z (sc), vehicle: methylcellulose (MC).
[4] abbreviates: endpoint: median survival time, dose: 300.0 mg/kg/injection, schedule: Q01DX Z (sc), vehicle: methylcellulose (MC).
The mark [5] stands for this setting: endpoint: median survival time, dose: 500.0 mg/kg/injection, schedule: Q01DX Z (sc), vehicle: methylcellulose (MC).
The mark [6] stands for this setting: endpoint: median survival time, dose: 14.0 mg/kg/injection, schedule: Q01DX Z (sc), vehicle: saline.
Where [7] appears, read: endpoint: median survival time, dose: 23.0 mg/kg/injection, schedule: Q01DX Z (sc), vehicle: saline.
Setting [8] is: endpoint: median survival time, dose: 39.0 mg/kg/injection, schedule: Q01DX Z (sc), vehicle: saline.
Setting [9] is: endpoint: median survival time, dose: 65.0 mg/kg/injection, schedule: Q01DX Z (sc), vehicle: saline.
[10] abbreviates: endpoint: median survival time, dose: 108.0 mg/kg/injection, schedule: Q01DX Z (sc), vehicle: saline.
Setting [11] is: endpoint: median survival time, dose: 38.9 mg/kg/injection, schedule: Q01DX Z (sc), vehicle: methylcellulose (MC).
Setting [12] is: endpoint: median survival time, dose: 23.0 mg/kg/injection, schedule: Q01DX Z (sc), vehicle: methylcellulose (MC).
[13] abbreviates: endpoint: median survival time, dose: 39.0 mg/kg/injection, schedule: Q01DX Z (sc), vehicle: methylcellulose (MC).
Setting [14] is: endpoint: median survival time, dose: 65.0 mg/kg/injection, schedule: Q01DX Z (sc), vehicle: methylcellulose (MC).

Values joined by “and” are separate entries in the source; they are usually repeats but may differ in a detail not shown here. Equal entries are not always repeated. Toxic doses and inconclusive results are not listed.

Turning to `COc1cccc2c1C(=O)c1c(O)c3c(c(O)c1C2=O)CC(O)(C(=O)CO)CC3OC1CC(N)C(O)C(C)O1` (stereo not drawn), the T/C (endpoint: median survival time, dose: 11.4 mg/kg/injection, schedule: Q04DX003 (ip), vehicle: saline) was 87 % of control; the T/C (endpoint: median survival time, dose: 22.8 mg/kg/injection, schedule: Q04DX003 (ip), vehicle: saline) was 89 % of control; the T/C (endpoint: median survival time, dose: 45.6 mg/kg/injection, schedule: Q04DX003 (ip), vehicle: saline) was 90 % of control; the T/C (endpoint: median survival time, dose: 91.2 mg/kg/injection, schedule: Q04DX003 (ip), vehicle: saline) is 95 % of control; the T/C (endpoint: median survival time, dose: 182.4 mg/kg/injection, schedule: Q04DX003 (ip), vehicle: saline) is 103 % of control.

With `CCCCC(=O)N(c1ccc(Nc2c3ccccc3nc3cc([N+](=O)[O-])ccc23)cc1)S(C)(=O)=O`, the T/C by setting is: (endpoint: mean survival time, dose: 3.18 mg/kg/injection, schedule: Q01DX009 (sc), vehicle: saline) 107 % of control; (endpoint: mean survival time, dose: 6.25 mg/kg/injection, schedule: Q01DX009 (sc), vehicle: saline) 112 % of control; (endpoint: mean survival time, dose: 25.0 mg/kg/injection, schedule: Q01DX009 (sc), vehicle: saline) 168 % of control.

For `CCCNc1ncnc2[nH]ncc12`, the T/C by setting is: under setting [1], 120 % of control; under setting [2], 110 % of control; under setting [3], 100 % of control; under setting [4], 100 % of control; under setting [5], 100 % of control.

On to `CCN(CC)P(=O)(N1CC1)N1CC1`, for which the T/C is 100 % of control (endpoint: median survival time, dose: 1.08 mg/kg/injection, schedule: Q01DX Z (sc), vehicle: saline); 100 % of control (endpoint: median survival time, dose: 1.8 mg/kg/injection, schedule: Q01DX Z (sc), vehicle: saline); 110 % of control (endpoint: median survival time, dose: 3.0 mg/kg/injection, schedule: Q01DX Z (sc), vehicle: saline); 115 % of control (endpoint: median survival time, dose: 5.0 mg/kg/injection, schedule: Q01DX Z (sc), vehicle: saline); 170 % of control and 194 % of control (endpoint: median survival time, dose: 8.4 mg/kg/injection, schedule: Q01DX Z (sc), vehicle: saline); 150 % of control and 183 % of control under setting [6]. Further, the T/C by setting is: under setting [7], 155 % of control; under setting [8], 111 % of control; under setting [9], 111 % of control; under setting [10], 100 % of control.

For `O=C1C(NC(=O)C2CCCCC2)=C(N2CC2)C(=O)C(NC(=O)C2CCCCC2)=C1N1CC1`, the T/C reads like this: (endpoint: median survival time, dose: 180.0 mg/kg/injection, schedule: Q01DX Z (sc), vehicle: carboxymethylcellulose (CMC)) 100 % of control; (endpoint: median survival time, dose: 300.0 mg/kg/injection, schedule: Q01DX Z (sc), vehicle: carboxymethylcellulose (CMC)) 100 % of control; (endpoint: median survival time, dose: 500.0 mg/kg/injection, schedule: Q01DX Z (sc), vehicle: carboxymethylcellulose (CMC)) 100 % of control; (endpoint: median survival time, dose: 833.0 mg/kg/injection, schedule: Q01DX Z (sc), vehicle: carboxymethylcellulose (CMC)) 100 % of control; (endpoint: median survival time, dose: 1388.0 mg/kg/injection, schedule: Q01DX Z (sc), vehicle: carboxymethylcellulose (CMC)) 100 % of control.

As for `COc1cc2cc3c4cc(OC)c(OC)cc4cc[n+]3c(C)c2cc1OC`, the T/C (endpoint: median survival time, dose: 100.0 mg/kg/injection, schedule: Q01DX009 (sc), vehicle: saline) is 97 % of control and 100 % of control; the T/C (endpoint: median survival time, dose: 200.0 mg/kg/injection, schedule: Q01DX009 (sc), vehicle: saline) is 97 % of control and 100 % of control; the T/C (endpoint: median survival time, dose: 400.0 mg/kg/injection, schedule: Q01DX009 (sc), vehicle: saline) is 99 % of control and 100 % of control; the T/C (endpoint: median survival time, dose: 800.0 mg/kg/injection, schedule: Q01DX009 (sc), vehicle: saline) was 100 % of control and 101 % of control; the T/C (endpoint: median survival time, dose: 1600.0 mg/kg/injection, schedule: Q01DX009 (sc), vehicle: saline) is 97 % of control and 100 % of control.

As to `CC(C)Sc1ncnc2nc[nH]c12`, the T/C was 110 % of control under setting [11], 155 % of control under setting [1] and 155 % of control under setting [2].

On to `Nc1nc(=S)c2ncn(C3OC(COC(=O)c4ccccc4)C(OC(=O)c4ccccc4)C3OC(=O)c3ccccc3)c2[nH]1` (stereo not drawn), for which the T/C under setting [12] is 100 % of control; the T/C under setting [13] is 100 % of control; the T/C under setting [14] was 110 % of control; the T/C under setting [2] is 100 % of control and 112 % of control; the T/C under setting [3] was 108 % of control; the T/C under setting [4] was 100 % of control. Moreover, the T/C under setting [5] was 91 % of control.

For `CCOS(C)(=O)=O`, the T/C is, setting by setting: under setting [6], 100 % of control; under setting [7], 95 % of control; under setting [8], 100 % of control; under setting [9], 90 % of control; under setting [10], 95 % of control; (endpoint: median survival time, dose: 180.0 mg/kg/injection, schedule: Q01DX Z (sc), vehicle: saline) 90 % of control.

For `O=NN(CCF)C(=O)NC1CCCCC1`, the T/C (endpoint: median survival time, dose: 8.4 mg/kg/injection, schedule: Q01DX Z (sc), vehicle: carboxymethylcellulose (CMC)) was 289 % of control; the T/C (endpoint: median survival time, dose: 14.0 mg/kg/injection, schedule: Q01DX Z (sc), vehicle: carboxymethylcellulose (CMC)) was 347 % of control; the T/C (endpoint: median survival time, dose: 23.0 mg/kg/injection, schedule: Q01DX Z (oral), vehicle: carboxymethylcellulose (CMC)) was 321 % of control; the T/C (endpoint: median survival time, dose: 23.0 mg/kg/injection, schedule: Q01DX Z (sc), vehicle: carboxymethylcellulose (CMC)) was 305 % of control; the T/C (endpoint: median survival time, dose: 39.0 mg/kg/injection, schedule: Q01DX Z (oral), vehicle: carboxymethylcellulose (CMC)) is 242 % of control; the T/C (endpoint: median survival time, dose: 65.0 mg/kg/injection, schedule: Q01DX Z (oral), vehicle: carboxymethylcellulose (CMC)) was 163 % of control. Also, the T/C (endpoint: median survival time, dose: 108.0 mg/kg/injection, schedule: Q01DX Z (oral), vehicle: carboxymethylcellulose (CMC)) was 121 % of control.

For `NC(=O)c1ccc([N+](=O)[O-])cc1`, the T/C was 90 % of control under setting [12]; 100 % of control under setting [13]; 90 % of control under setting [14]; 90 % of control under setting [2]; 90 % of control under setting [3]; 100 % of control under setting [4]. In addition, under setting [5], the T/C was 100 % of control.

Regarding `N[C@H](C(=O)O)[C@@H]1CC(Cl)=NO1`, the T/C is 113 % of control (endpoint: median survival time, dose: 1.0 mg/kg/injection, schedule: Q01DX009 (sc), vehicle: saline); 150 % of control (endpoint: median survival time, dose: 2.0 mg/kg/injection, schedule: Q01DX009 (sc), vehicle: saline); 159 % of control (endpoint: median survival time, dose: 4.0 mg/kg/injection, schedule: Q01DX009 (sc), vehicle: saline); 151 % of control and 172 % of control (endpoint: median survival time, dose: 8.0 mg/kg/injection, schedule: Q01DX009 (sc), vehicle: saline); 162 % of control (endpoint: median survival time, dose: 16.0 mg/kg/injection, schedule: Q01DX009 (sc), vehicle: saline); 159 % of control (endpoint: median survival time, dose: 32.0 mg/kg/injection, schedule: Q01DX009 (sc), vehicle: saline). Moreover, the T/C (endpoint: median survival time, dose: 64.0 mg/kg/injection, schedule: Q01DX009 (sc), vehicle: saline) was 154 % of control.

As for `CCC(C)SC1=NC=NC2=NC=NC21` (stereo not drawn), the T/C is, setting by setting: under setting [11], 109 % of control; under setting [2], 150 % of control; under setting [5], 100 % of control; (endpoint: median survival time, dose: 833.0 mg/kg/injection, schedule: Q01DX Z (sc), vehicle: methylcellulose (MC)) 100 % of control.

For `Clc1ncnc2c1ncn2C1CCCO1` (stereo not drawn), the T/C is 100 % of control (endpoint: median survival time, dose: 8.4 mg/kg/injection, schedule: Q01DX Z (sc), vehicle: methylcellulose (MC)); 100 % of control (endpoint: median survival time, dose: 14.0 mg/kg/injection, schedule: Q01DX Z (sc), vehicle: methylcellulose (MC)); 100 % of control under setting [12]; 100 % of control under setting [13]; 100 % of control under setting [14]; 100 % of control under setting [2]. The T/C by setting is: under setting [3], 100 % of control; under setting [4], 110 % of control; under setting [5], 100 % of control.

For the origin of these results see PubChem BioAssay AID250 (DTP/NCI, 2004).
